Reference: patent US9809808B2, “Antimicrobial agents” (KATHOLIEKE UNIVERSITEIT LEUVEN K.U. LEUVEN R&D, priority 2008, dated 2017)
Like-named read-outs stand apart in the source and are kept apart here.

Test system: Burkholderia solanacearum
Type: cell-based
Conditions: 100 μg/ml undialyzed protein, 1 hour, room temperature

For “phiKZgp144: SEQ ID NO: 1: unmodified modular endolysin originating from Pseudomonas aeruginosa phage φKZ [reference compound]”, the “Reduction [%] (relative inactivation)” value was 0%.

B1: POLY-gp144: SEQ ID NO: 35: phiKZgp144 (SEQ ID NO: 1) with N-terminal peptide stretch KRKKRKKRK (SEQ ID NO: 11) (protein)
chain: MGSKRKKRKKRKKVLRKGDRGDEVCQLQTLLNLCGYDVGKPDGIFGNNTFNQVVKFQKDNCLDSDGIVGKNTWAELFSKYSPPIPYKTIPMPTANKSRAAATPVMNAVENATGVRSQLLLTFASIESAFDYEIKAKTSSATGWFQFLTGTWKTMIENYGMKYGVLTDPTGALRKDPRISALMGAELIKENMNILRPVLKREPTDTDLYLAHFFGPGAARRFLTTGQNELAATHFPKEAQANPSIFYNKDGSPKTIQEVYNLMDGKVAAHRK
modifications: POLY-gp144
For B1, the “Reduction [%] (relative inactivation)” value (listed as POLYKZ144) was 99-99.9%.
